Test results as given in PMC3914206.

Legend:
[1] = biological target: T1, panel of 442 kinases (Homo sapiens, UniProt Q15349); format: binding; conditions: compound concentration 10 µM; for % Ctrl, RSK3(Kin.Dom.1-N-terminal): kinase RSK3(Kin.Dom.1-N-terminal); for % Ctrl, RSK3(Kin.Dom.2-C-terminal): kinase RSK3(Kin.Dom.2-C-terminal)
T1 construct: purchased KINOMEscan
Source text: (§1) We assessed the selectivity of members of this scaffold using the KINOMEscan methodology across a near comprehensive panel of 442 kinases [[18,27]].

[2] = biological target: T2, panel of 442 kinases (Homo sapiens, UniProt Q96PY6); format: binding; conditions: Compound Concentration 10 µM
T2 construct: purchased KINOMEscan
T2 sequence (Q96PY6 1-1258): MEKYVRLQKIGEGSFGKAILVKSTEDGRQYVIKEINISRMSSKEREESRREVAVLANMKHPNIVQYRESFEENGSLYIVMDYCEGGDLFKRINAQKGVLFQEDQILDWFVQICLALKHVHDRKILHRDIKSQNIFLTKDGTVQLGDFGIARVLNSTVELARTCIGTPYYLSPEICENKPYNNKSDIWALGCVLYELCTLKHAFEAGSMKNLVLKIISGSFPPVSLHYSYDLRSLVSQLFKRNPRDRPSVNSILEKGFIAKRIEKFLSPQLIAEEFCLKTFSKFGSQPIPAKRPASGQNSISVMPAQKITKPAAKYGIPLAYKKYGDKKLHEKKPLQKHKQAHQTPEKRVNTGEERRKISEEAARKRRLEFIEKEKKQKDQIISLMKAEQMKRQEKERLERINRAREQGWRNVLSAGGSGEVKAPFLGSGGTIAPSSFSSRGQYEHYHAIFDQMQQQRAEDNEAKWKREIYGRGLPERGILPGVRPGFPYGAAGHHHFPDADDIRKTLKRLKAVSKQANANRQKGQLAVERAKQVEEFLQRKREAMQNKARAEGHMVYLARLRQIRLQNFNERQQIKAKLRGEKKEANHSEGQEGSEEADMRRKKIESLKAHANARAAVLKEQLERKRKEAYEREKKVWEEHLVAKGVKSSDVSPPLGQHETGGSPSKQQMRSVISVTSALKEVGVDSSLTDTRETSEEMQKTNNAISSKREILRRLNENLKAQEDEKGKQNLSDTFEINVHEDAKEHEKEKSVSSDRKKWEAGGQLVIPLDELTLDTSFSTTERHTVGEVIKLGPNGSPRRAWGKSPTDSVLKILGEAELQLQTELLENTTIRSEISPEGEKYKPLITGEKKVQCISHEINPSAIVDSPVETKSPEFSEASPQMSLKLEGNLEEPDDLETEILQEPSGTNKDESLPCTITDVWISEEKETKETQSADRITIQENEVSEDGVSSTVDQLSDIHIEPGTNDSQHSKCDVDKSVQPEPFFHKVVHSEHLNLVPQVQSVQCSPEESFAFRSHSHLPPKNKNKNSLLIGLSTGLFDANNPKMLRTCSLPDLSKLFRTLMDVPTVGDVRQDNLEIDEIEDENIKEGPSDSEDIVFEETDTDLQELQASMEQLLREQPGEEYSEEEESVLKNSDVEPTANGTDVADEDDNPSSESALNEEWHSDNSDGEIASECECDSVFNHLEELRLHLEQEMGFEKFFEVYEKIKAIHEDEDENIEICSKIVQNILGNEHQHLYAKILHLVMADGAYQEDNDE
Source text: as §1

T1 sequence (Q15349 whole entry): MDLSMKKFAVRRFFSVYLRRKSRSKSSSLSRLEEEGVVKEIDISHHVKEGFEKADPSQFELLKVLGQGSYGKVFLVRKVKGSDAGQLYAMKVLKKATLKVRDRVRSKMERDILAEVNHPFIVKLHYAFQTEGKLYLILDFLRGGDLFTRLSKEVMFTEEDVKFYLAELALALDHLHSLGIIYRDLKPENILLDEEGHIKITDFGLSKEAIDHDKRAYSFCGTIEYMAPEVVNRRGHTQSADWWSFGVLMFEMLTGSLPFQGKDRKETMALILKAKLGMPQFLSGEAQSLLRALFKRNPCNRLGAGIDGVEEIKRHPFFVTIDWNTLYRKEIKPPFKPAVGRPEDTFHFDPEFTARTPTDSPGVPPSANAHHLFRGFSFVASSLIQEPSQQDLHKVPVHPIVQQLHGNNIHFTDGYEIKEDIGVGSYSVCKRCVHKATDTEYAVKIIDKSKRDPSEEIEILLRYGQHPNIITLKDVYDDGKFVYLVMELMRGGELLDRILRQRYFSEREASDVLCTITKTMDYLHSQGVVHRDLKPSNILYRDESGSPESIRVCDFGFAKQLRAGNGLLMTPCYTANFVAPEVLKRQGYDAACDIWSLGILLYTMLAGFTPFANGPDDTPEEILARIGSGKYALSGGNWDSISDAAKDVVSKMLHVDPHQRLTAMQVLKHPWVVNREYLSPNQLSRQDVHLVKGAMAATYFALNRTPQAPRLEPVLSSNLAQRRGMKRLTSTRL

COc1cc(C(=O)N2CCC(N3CCN(C)CC3)CC2)ccc1Nc1ncc2c(n1)N1CCc3cccc(c31)C(=O)N2C [Compound 24]
% Ctrl, RSK3(Kin.Dom.1-N-terminal) [1]: 100 % Ctrl | % Ctrl, RSK3(Kin.Dom.2-C-terminal) [1]: 13 % Ctrl | KINOMEscan: NEK1 [2]: 63

CCOc1cc(C(=O)N2CCC(N3CCN(C)CC3)CC2)ccc1Nc1ncc2c(n1)N(C1CCCC1)c1ccccc1C(=O)N2C [Compound 26]
% Ctrl, RSK3(Kin.Dom.1-N-terminal) [1]: 100 % Ctrl | % Ctrl, RSK3(Kin.Dom.2-C-terminal) [1]: 83 % Ctrl | KINOMEscan: NEK1 [2]: 84

COc1cc(C(=O)N2CCC(N3CCN(C)CC3)CC2)ccc1Nc1ncc2c(n1)N(C1CCCC1)c1ccccc1C(=O)N2C [Compound 25, 11-cyclopentyl-2-((2-methoxy-4-(4-(4-methylpiperazin-1-yl)piperidine-1-carbonyl)phenyl)amino)-5-methyl-5H-benzo[e]pyrimido[5,4-b][1,4]diazepin-6(11H)-one]
% Ctrl, RSK3(Kin.Dom.1-N-terminal) [1]: 100 % Ctrl | % Ctrl, RSK3(Kin.Dom.2-C-terminal) [1]: 78 % Ctrl | KINOMEscan: NEK1 [2]: 72

COc1cc(C(=O)N2CCC(N3CCN(C)CC3)CC2)ccc1Nc1ncc2c(n1)N(C)c1ccccc1C(=O)N2C [15 (LRRK2-IN-1)]
% Ctrl, RSK3(Kin.Dom.1-N-terminal) [1]: 83 % Ctrl | % Ctrl, RSK3(Kin.Dom.2-C-terminal) [1]: 7.5 % Ctrl | KINOMEscan: NEK1 [2]: 83
